Measurements from PMC4415909 (Journal of Medicinal Chemistry, 2015).
Where a name gives a salt, the structure may show the parent alone.

Experiments:
[1] = biological target: BACE1 (Homo sapiens, UniProt P56817); format: biochemical
[2] = system: retinal pigment epithelium (RPE) layer of the eye; conditions: cited from earlier work
[3] = system: major CYP-P450s (1A2, 2C9, 2D6, 3A4, 2C8, 2C19); experiment: Multipoint cocktail DDI IC50 assay, major CYP-P450s; format: in vitro ADME; conditions: human, pooled human liver microsomes (HL-MIX-102), pH 7.4
[4] = cited from earlier work
[5] = biological target: hERG (Homo sapiens, UniProt Q12809); experiment: hERG patch clamp assay in hERG-expressing CHO cells; format: cell-based; conditions: pH 7.35
[6] = Human hepatocyte clearance; format: in vitro ADME; conditions: hepatocytes

Chain of BACE1 (P56817 46-457 limits assumed): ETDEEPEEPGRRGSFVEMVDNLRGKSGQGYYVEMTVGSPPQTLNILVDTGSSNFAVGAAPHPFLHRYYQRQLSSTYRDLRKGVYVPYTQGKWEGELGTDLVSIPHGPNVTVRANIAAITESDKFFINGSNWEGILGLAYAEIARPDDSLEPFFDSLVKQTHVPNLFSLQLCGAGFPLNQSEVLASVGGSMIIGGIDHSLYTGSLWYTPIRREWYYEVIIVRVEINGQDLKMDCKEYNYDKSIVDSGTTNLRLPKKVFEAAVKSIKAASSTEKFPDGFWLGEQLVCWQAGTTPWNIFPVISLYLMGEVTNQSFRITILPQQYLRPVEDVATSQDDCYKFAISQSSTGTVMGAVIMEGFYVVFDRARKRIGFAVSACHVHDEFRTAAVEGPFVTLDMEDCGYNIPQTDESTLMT
Chain of hERG (Q12809 whole entry): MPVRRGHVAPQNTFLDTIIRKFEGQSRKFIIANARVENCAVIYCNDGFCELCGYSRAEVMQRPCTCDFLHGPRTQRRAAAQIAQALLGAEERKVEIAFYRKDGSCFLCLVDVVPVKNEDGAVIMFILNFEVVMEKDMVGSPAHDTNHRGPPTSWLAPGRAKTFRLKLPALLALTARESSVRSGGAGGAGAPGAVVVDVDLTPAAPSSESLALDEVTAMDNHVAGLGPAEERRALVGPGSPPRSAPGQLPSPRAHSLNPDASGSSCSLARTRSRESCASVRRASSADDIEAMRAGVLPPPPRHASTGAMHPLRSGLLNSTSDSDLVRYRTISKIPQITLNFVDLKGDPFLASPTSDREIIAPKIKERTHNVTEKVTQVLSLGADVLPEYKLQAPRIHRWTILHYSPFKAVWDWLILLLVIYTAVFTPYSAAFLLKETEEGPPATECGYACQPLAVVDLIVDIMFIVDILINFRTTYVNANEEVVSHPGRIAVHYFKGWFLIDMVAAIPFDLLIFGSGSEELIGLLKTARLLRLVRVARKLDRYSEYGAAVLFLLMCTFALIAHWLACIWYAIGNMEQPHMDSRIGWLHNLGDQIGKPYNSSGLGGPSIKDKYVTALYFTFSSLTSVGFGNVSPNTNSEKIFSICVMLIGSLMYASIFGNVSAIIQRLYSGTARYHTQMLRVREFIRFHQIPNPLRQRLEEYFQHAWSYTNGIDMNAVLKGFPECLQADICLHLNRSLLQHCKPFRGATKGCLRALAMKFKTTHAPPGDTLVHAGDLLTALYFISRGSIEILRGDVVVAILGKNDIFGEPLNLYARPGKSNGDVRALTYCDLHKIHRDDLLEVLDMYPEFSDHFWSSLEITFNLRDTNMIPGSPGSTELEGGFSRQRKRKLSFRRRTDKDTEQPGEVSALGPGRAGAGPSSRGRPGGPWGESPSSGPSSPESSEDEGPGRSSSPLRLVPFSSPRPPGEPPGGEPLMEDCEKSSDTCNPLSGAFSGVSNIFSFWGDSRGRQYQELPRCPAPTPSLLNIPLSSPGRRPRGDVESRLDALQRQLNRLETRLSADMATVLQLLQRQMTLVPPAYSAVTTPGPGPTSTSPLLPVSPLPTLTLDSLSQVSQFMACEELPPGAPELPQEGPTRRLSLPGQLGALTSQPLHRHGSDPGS

## Cc1cc([C@H]2C[C@H]3CSC(N)=N[C@@]3(c3ccc(F)cc3F)CO2)on1 [Compound 4, (4aR, 6R, 8aS)-8a-(2,4-Difluorophenyl)-6-(3-methyl-1,2-oxazo1-5-yl)-4,4-a,5,6,8,8a-hexahydropyrano [3,4-][1,3]thiazin-2-amine]
[1]
  improvement of BACE1 potency over compound 2: approximately 10 fold

## C[C@@]1(c2cc(-c3cncnc3)c(F)cc2F)CCSC(N)=N1 [LY2811376]
[2]
  finding in rat safety studies: accumulation of autofluorescent material and degeneration of the retinal pigment epithelium (RPE) layer of the eye

## Cc1coc([C@H]2C[C@H]3[C@@H](CF)SC(N)=N[C@@]3(c3ccc(F)cc3F)CO2)n1 [Compound 12, (4S,4aR,6R,8aS)-8a-(2,4-Difluorophenyl)-4-(fluoromethyl)-6-(4-methyloxazol-2-yl)-4,4a,5,6,8,8a-hexahydropyrano[3,4-d][1,3]thiazin-2-amine]
[3]
  IC50: > 30 µM

## NC1=N[C@@]2(c3cc(NC(=O)c4ccc(F)cn4)ccc3F)COC[C@H]2CS1 [LY2886721]
[4]
  finding that terminated phase II study: abnormal liver biochemical tests

## NC1=N[C@@]2(c3ccc(F)cc3F)CO[C@@H](c3ncco3)C[C@H]2CS1 [Compound 2, (4aR,6R,8aS)-8a-(2,4-Difluorophenyl)-6-(oxazol-2-yl)-4,4a,5,6,8,8a-hexahydropyrano[3,4-d][1,3]thiazin-2-amine]
[1]
  improvement of BACE1 potency over 1: ~2 fold
[1]; LipE = BACE1 CFA pIC50 – log D
  LipE: 5.2

## Cc1cc([C@H]2C[C@H]3[C@@H](CF)SC(N)=N[C@@]3(c3ccc(F)cc3F)CO2)on1 [Compound 13, (4S,4aR,6R,8aS)-8a-(2,4-Difluorophenyl)-4-(fluoromethyl)-6-(3-methyl-1,2-oxazol-5-yl)-4,4a,5,6,8,8a-hexahydropyrano[3,4-d][1,3]thiazin-2-amine]
[3]
  IC50: > 30 µM
[5]
  improvement of hERG margin compared to isoxazole 10: greater than 7 fold

## Cc1coc([C@H]2C[C@H]3CSC(N)=N[C@@]3(c3ccc(F)cc3F)CO2)n1 [Compound 3, (4aR,6R,8aS)-8a-(2,4-Difluorophenyl)-6-(4-methyloxazol-2-yl)-4,4a,5,6,8,8a-hexahydropyrano[3,4-d][1,3]thiazin-2-amine]
[1]
  improvement of BACE1 potency over compound 2: approximately 10 fold

## Cc1coc([C@H]2C[C@H]3[C@@H](C)SC(N)=N[C@@]3(c3ccc(F)cc3F)CO2)n1 [Compound 9, (4R,4aR,6R,8aS)-8a-(2,4-Difluorophenyl)-4-methyl-6-(4-methyloxazol-2-yl)-4,4a,5,6,8,8a-hexahydropyrano[3,4-d][1,3]thiazin-2-amine]
[3]
  IC50: > 30 µM

## Cn1cc([C@H]2C[C@H]3CSC(N)=N[C@@]3(c3ccc(F)cc3F)CO2)cn1 [Compound 5, (4aR,6R,8aS)-8a-(2,4-Difluorophenyl)-6-(1-methyl-1H-pyrazol-4-yl)-4,4a,5,6,8,8a-hexahydropyrano[3,4-d][1,3]thiazin-2-amine]
[1]
  improvement of BACE1 potency over compound 2: approximately 10 fold
[6]
  hepatocyte CLint: < 6 µL/min/1e6 cells

## Cn1cc([C@H]2C[C@H]3[C@@H](CF)SC(N)=N[C@@]3(c3ccc(F)cc3F)CO2)cn1 [Compound 14, (4S,4aR,6R,8aS)-8a-(2,4-Difluorophenyl)-4-(fluoromethyl)-6-(1-methyl-1H-pyrazol-4-yl)-4,4a,5,6,8,8a-hexahydropyrano[3,4-d][1,3]thiazin-2-amine, Hydrochloride Salt]
[3]
  IC50: > 30 µM

## CC1(C#Cc2cnc3c(c2)[C@]2(COC(N)=N2)c2cc(-c4cccnc4F)ccc2O3)COC1 [AMG-8718]
[2]
  finding in rat safety studies: accumulation of autofluorescent material and degeneration of the retinal pigment epithelium (RPE) layer of the eye
